In US8802597B2, “Herbicidal pyrimidines” (E I du Pont de Nemours and Company, priority 2003, dated 2014):

Experiments:
Type in all cases: in vivo
[1] = test system: large crabgrass (Digitaria sanguinalis); experiment: Test G pre/postemergence
From the text: (§1) Seeds or nutlets of plant species selected from bermudagrass (Cynodon dactylon), Surinam grass (Brachiaria decumbens), large crabgrass (Digitaria sanguinalis), green foxtail (Setaria viridis), goosegrass (Eleusine indica), johnsongrass (Sorghum halepense), kochia (Kochia scoparia), pitted morningglory (Ipomoea lacunosa), purple nutsedge (Cyperus rotundus), common ragweed (Ambrosia elatior), black mustard (Brassica nigra), guineagrass (Panicum maximum), dallisgrass (Paspalum dilatatum), barnyardgrass (Echinochloa crus-galli), southern sandbur (Cenchrus echinatus), common sowthistle (Sonchus oleraceous), prickly sida (Sida spinosa), Italian ryegrass (Lolium multiflorum), common purslane (Portulaca oleracea), broadleaf signalgrass (Brachiaria platyphylla), common groundsel (Senecio vulgaris), common chickweed (Stellaria media), tropical spiderwort (Commelina benghalensis), annual bluegrass (Poa annua), downy bromegrass (Bromus tectorum), itchgrass (Rottboellia cochinchinensis), quackgrass (Elytrigia repens), Canada horseweed (Conyza canadensis), field bindweed (Convolvulus arvensis), spanishneedles (Bidens bipinnata), common mallow (Malva sylvestris), and Russian thistle (Salsola kali) were planted and treated preemergence with test chemicals formulated in a non-phytotoxic solvent mixture which included a surfactant.
(§2) At the same time, plants selected from these weed species were treated with postemergence applications of some of the test chemicals formulated in the same manner. Plants ranged in height from 2 to 18 cm (1- to 4-leaf stage) for postemergence treatments. Treated plants and controls were maintained in a greenhouse for 12 to 21 days, after which time all species were compared to controls and visually evaluated.
(§3) Plant response ratings, summarized in Table G, are based on a scale of 0 to 100 where 0 is no effect and 100 is complete control. A dash (-) response means no test result.

[2] = test system: guineagrass (Panicum maximum); experiment: Test G pre/postemergence
From the text: as §1, §2, §3

[3] = test system: ducksalad (Heteranthera limosa); experiment: Test E flooded paddy water application; conditions: Flood, 21 days, scale 0 to 100 (0 no effect, 100 complete control)
In short: (§4)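 Greenhouse pots of Tama silt loam with weeds and rice at 2.0–2.5-leaf stage, flooded to 3 cm; compounds applied directly into paddy water, depth maintained. Visual rating versus untreated controls after 21 days, 0 (no effect) to 100 (complete control); 29.5/26.7 °C, 16-h photoperiod.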

[4] = test system: rice flatsedge (Cyperus iria); experiment: Test E flooded paddy water application; conditions: Flood, 21 days, scale 0 to 100 (0 no effect, 100 complete control)
In short: as §4

[5] = test system: smallflower umbrella sedge (Cyperus difformis); experiment: Test E flooded paddy water application; conditions: Flood, 21 days, scale 0 to 100 (0 no effect, 100 complete control)
In short: as §4

[6] = test system: late watergrass (Echinochloa oryzicola); experiment: Test E flooded paddy water application; conditions: Flood, 21 days, scale 0 to 100 (0 no effect, 100 complete control)
In short: as §4

[7] = test system: water seeded rice seedlings (Oryza sativa cv. ‘Japonica-M202’); experiment: Test E flooded paddy water application; conditions: Flood, 21 days, scale 0 to 100 (0 no effect, 100 complete control)
In short: as §4

[8] = test system: bearded (brdd.) sprangletop (Leptochloa fusca ssp. fascicularis); experiment: Test E flooded paddy water application; conditions: Flood, 21 days, scale 0 to 100 (0 no effect, 100 complete control)
In short: as §4

[9] = test system: junglerice (Echinochloa colona); experiment: Test E flooded paddy water application; conditions: Flood, 21 days, scale 0 to 100 (0 no effect, 100 complete control)
In short: as §4

[10] = test system: early watergrass (Echinochloa oryzoides); experiment: Test E flooded paddy water application; conditions: Flood, 21 days, scale 0 to 100 (0 no effect, 100 complete control)
In short: as §4

[11] = test system: purple redstem (Ammannia coccinea); experiment: Test E flooded paddy water application; conditions: Flood, 21 days, scale 0 to 100 (0 no effect, 100 complete control)
In short: as §4

[12] = test system: transplanted rice seedlings (Oryza sativa cv. ‘Japonica-M202’); experiment: Test E flooded paddy water application; conditions: Flood, 21 days, scale 0 to 100 (0 no effect, 100 complete control)
In short: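 Response scored visually on a 0–100 scale (100 = complete control) at 21 days against untreated pots. Treatment was into paddy water 3 cm deep over silt loam, with plants at the 2.0–2.5-leaf stage, grown under 16-h light at 29.5/26.7 °C day/night.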

[13] = Postemergence, 8 g ai/ha, scale 0 to 100
[14] = Postemergence, 16 g ai/ha, scale 0 to 100
[15] = Postemergence, 31 g ai/ha, scale 0 to 100
[16] = Postemergence, 62 g ai/ha, scale 0 to 100
[17] = Preemergence, 8 g ai/ha, scale 0-100
[18] = Preemergence, 16 g ai/ha, scale 0-100
[19] = Preemergence, 31 g ai/ha, scale 0-100
[20] = Preemergence, 62 g ai/ha, scale 0-100
[21] = Preemergence, 125 g ai/ha, scale 0-100
[22] = Preemergence, 250 g ai/ha, scale 0-100
[23] = Preemergence, 500 g ai/ha, scale 0 to 100
[24] = Postemergence, 250 g ai/ha, scale 0 to 100
[25] = Postemergence, 125 g ai/ha, scale 0 to 100
[26] = Postemergence, 500 g ai/ha, scale 0 to 100
[27] = Preemergence, 375 g ai/ha, scale 0 to 100

SMILES: CCOC(=O)c1nc(-c2ccc(Cl)cc2)nc(N)c1Cl [Compound 64, ethyl 6-amino-5-chloro-2-(4-chlorophenyl)-4-pyrimidinecarboxylate]
- Plant response rating, Crabgrass, Large [1, 13]: 30
- Plant response rating, Crabgrass, Large [1, 14]: 50
- Plant response rating, Crabgrass, Large [1, 15]: 70
- Plant response rating, Crabgrass, Large [1, 16]: 80
- Plant response rating, Crabgrass, Large [1, 17]: 0
- Plant response rating, Crabgrass, Large [1, 18]: 0
- Plant response rating, Crabgrass, Large [1, 19]: 0
- Plant response rating, Crabgrass, Large [1, 20]: 35
- Plant response rating, Guineagrass [2, 13]: 0
- Plant response rating, Guineagrass [2, 14]: 0
- Plant response rating, Guineagrass [2, 15]: 0
- Plant response rating, Guineagrass [2, 16]: 0
- Plant response rating, Guineagrass [2, 17]: 0
- Plant response rating, Guineagrass [2, 18]: 0
- Plant response rating, Guineagrass [2, 19]: 0
- Plant response rating, Guineagrass [2, 20]: 0
- Ducksalad plant response rating ([3]; 32 g ai/ha): 100
- Ducksalad plant response rating ([3]; 64 g ai/ha): 100
- Ducksalad plant response rating ([3]; 125 g ai/ha): 100
- Ducksalad plant response rating ([3]; 250 g ai/ha): 100
- Plant response rating, Ducksalad ([3]; 16 g ai/ha): 100
- Flatsedge, Rice plant response rating ([4]; 32 g ai/ha): 85
- Flatsedge, Rice plant response rating ([4]; 64 g ai/ha): 90
- Flatsedge, Rice plant response rating ([4]; 125 g ai/ha): 100
- Flatsedge, Rice plant response rating ([4]; 250 g ai/ha): 100
- Plant response rating, Flatsedge, Rice ([4]; 16 g ai/ha): 75
- Sedge, Umbrella plant response rating ([5]; 32 g ai/ha): 80
- Sedge, Umbrella plant response rating ([5]; 64 g ai/ha): 85
- Sedge, Umbrella plant response rating ([5]; 125 g ai/ha): 100
- Sedge, Umbrella plant response rating ([5]; 250 g ai/ha): 100
- Plant response rating, Sedge, Umbrella ([5]; 16 g ai/ha): 65
- Watergrass, Late plant response rating ([6]; 32 g ai/ha): 0
- Watergrass, Late plant response rating ([6]; 64 g ai/ha): 0
- Watergrass, Late plant response rating ([6]; 125 g ai/ha): 20
- Watergrass, Late plant response rating ([6]; 250 g ai/ha): 20
- Plant response rating, Watergrass, Late ([6]; 16 g ai/ha): 0
- Rice, Water Seeded plant response rating ([7]; 32 g ai/ha): 0
- Rice, Water Seeded plant response rating ([7]; 64 g ai/ha): 0
- Rice, Water Seeded plant response rating ([7]; 125 g ai/ha): 0
- Rice, Water Seeded plant response rating ([7]; 250 g ai/ha): 0
- Plant response rating, Rice, Water Seeded ([7]; 16 g ai/ha): 0
- Sprangletop, Brdd. plant response rating ([8]; 32 g ai/ha): 0
- Sprangletop, Brdd. plant response rating ([8]; 64 g ai/ha): 0
- Sprangletop, Brdd. plant response rating ([8]; 125 g ai/ha): 0
- Sprangletop, Brdd. plant response rating ([8]; 250 g ai/ha): 0
- Plant response rating, Sprangletop, Brdd. ([8]; 16 g ai/ha): 0
- Junglerice plant response rating ([9]; 32 g ai/ha): 0
- Junglerice plant response rating ([9]; 64 g ai/ha): 0
- Junglerice plant response rating ([9]; 125 g ai/ha): 0
- Junglerice plant response rating ([9]; 250 g ai/ha): 0
- Plant response rating, Junglerice ([9]; 16 g ai/ha): 0
- Watergrass, Early plant response rating ([10]; 32 g ai/ha): 0
- Watergrass, Early plant response rating ([10]; 64 g ai/ha): 0
- Watergrass, Early plant response rating ([10]; 125 g ai/ha): 0
- Watergrass, Early plant response rating ([10]; 250 g ai/ha): 0
- Plant response rating, Watergrass, Early ([10]; 16 g ai/ha): 0
- Redstem plant response rating ([11]; 32 g ai/ha): 60
- Redstem plant response rating ([11]; 64 g ai/ha): 60
- Redstem plant response rating ([11]; 125 g ai/ha): 60
- Redstem plant response rating ([11]; 250 g ai/ha): 80
- Plant response rating, Redstem ([11]; 16 g ai/ha): 20
- Rice, Transplanted plant response rating ([12]; 32 g ai/ha): 0
- Rice, Transplanted plant response rating ([12]; 64 g ai/ha): 0
- Rice, Transplanted plant response rating ([12]; 125 g ai/ha): 10
- Rice, Transplanted plant response rating ([12]; 250 g ai/ha): 10
- Plant response rating, Rice, Transplanted ([12]; 16 g ai/ha): 0

SMILES: COC(=O)c1nc(C2CC2)nc(N)c1Cl [Compound 9, methyl 6-amino-5-chloro-2-cyclopropyl-4-pyrimidinecarboxylate]
- Plant response rating, Crabgrass, Large [1, 20]: 70
- Plant response rating, Crabgrass, Large [1, 21]: 90
- Plant response rating, Crabgrass, Large [1, 22]: 90
- Plant response rating, Crabgrass, Large [1, 23]: 100
- Plant response rating, Guineagrass [2, 20]: 90
- Plant response rating, Guineagrass [2, 21]: 100
- Plant response rating, Guineagrass [2, 22]: 100
- Plant response rating, Guineagrass [2, 23]: 100

SMILES: CCOC(=O)c1nc(C2CC2)nc(N)c1Cl [Compound 4, ethyl 6-amino-5-chloro-2-cyclopropyl-4-pyrimidinecarboxylate]
- Plant response rating, Crabgrass, Large [1, 20]: 60
- Plant response rating, Crabgrass, Large [1, 21]: 75
- Plant response rating, Crabgrass, Large [1, 22]: 100
- Plant response rating, Crabgrass, Large [1, 23]: 100
- Plant response rating, Guineagrass [2, 20]: 95
- Plant response rating, Guineagrass [2, 21]: 95
- Plant response rating, Guineagrass [2, 22]: 100
- Plant response rating, Guineagrass [2, 23]: 100

SMILES: Nc1nc(C2CC2)nc(C(=O)OCc2ccccc2)c1Br [Compound 22, phenylmethyl 6-amino-5-bromo-2-cyclopropyl-4-pyrimidinecarboxylate]
- Plant response rating, Crabgrass, Large [1, 24]: 85
- Plant response rating, Crabgrass, Large [1, 14]: 15
- Plant response rating, Crabgrass, Large [1, 15]: 35
- Plant response rating, Crabgrass, Large [1, 16]: 50
- Plant response rating, Crabgrass, Large [1, 25]: 85
- Plant response rating, Crabgrass, Large [1, 18]: 0
- Plant response rating, Crabgrass, Large [1, 19]: 40
- Plant response rating, Crabgrass, Large [1, 20]: 40
- Plant response rating, Crabgrass, Large [1, 21]: 80
- Plant response rating, Crabgrass, Large [1, 22]: 80
- Plant response rating, Guineagrass [2, 24]: 100
- Plant response rating, Guineagrass [2, 14]: 5
- Plant response rating, Guineagrass [2, 15]: 55
- Plant response rating, Guineagrass [2, 16]: 65
- Plant response rating, Guineagrass [2, 25]: 95
- Plant response rating, Guineagrass [2, 18]: 0
- Plant response rating, Guineagrass [2, 19]: 35
- Plant response rating, Guineagrass [2, 20]: 75
- Plant response rating, Guineagrass [2, 21]: 90
- Plant response rating, Guineagrass [2, 22]: 95

SMILES: CCOC(=O)c1nc(C2CC2)nc(N)c1Br [Compound 1, ethyl 6-amino-5-bromo-2-cyclopropyl-4-pyrimidinecarboxylate]
- Plant response rating, Crabgrass, Large [1, 24]: 70
- Plant response rating, Crabgrass, Large [1, 26]: 70
- Plant response rating, Crabgrass, Large [1, 16]: 50
- Plant response rating, Crabgrass, Large [1, 25]: 60
- Plant response rating, Crabgrass, Large ([1]; Postemergence, 375 g ai/ha, scale 0 to 100): 70
- Plant response rating, Crabgrass, Large [1, 20]: 20
- Plant response rating, Crabgrass, Large [1, 21]: 30
- Plant response rating, Crabgrass, Large [1, 22]: 90
- Plant response rating, Crabgrass, Large [1, 23]: 90
- Plant response rating, Crabgrass, Large [1, 27]: 90
- Plant response rating, Guineagrass [2, 24]: 95
- Plant response rating, Guineagrass [2, 26]: 95
- Plant response rating, Guineagrass [2, 16]: 60
- Plant response rating, Guineagrass [2, 25]: 70
- Plant response rating, Guineagrass [2, 20]: 70
- Plant response rating, Guineagrass [2, 21]: 70
- Plant response rating, Guineagrass [2, 22]: 85
- Plant response rating, Guineagrass [2, 23]: 100
- Plant response rating, Guineagrass [2, 27]: 100
